Assay results published in patent US20060135569A1, “Use of benzisoselenazolone compounds against ischemic myocardial damage” (priority 2002, published 2006).
Marks after values point to notes of the source that are not given here.

Key:
[1] = test system: arrhythmia induced by ischemia/reperfusion insults in anesthetized rats; test: Ischemia/reperfusion arrhythmia in anesthetized rats, oral administration; type: in vivo, rat; conditions: for protective effect: incidence/duration of VT, VF, duration of ventricular arrhythmic / protective effect: incidence/duration of VT, duration of ventricular arrhythmic: rats; for protective effect: incidence/duration of VT, duration of ventricular arrhythmic: 100 mg/kg orally
Description: IMM-004 and IMM-127 were dissolved in the solution of ethanol and PEG (ethanol: PEG (v/v)=1:9). Rats were orally administrated the compounds at volume of 10 ml/Kg. The left anterior descending coronary artery was ligated in rats for 15 min at 60 min after the administration, and then the reprefusion was achieved.
(§1) Arrhythmic potency induced by myocardial insults was used to assess the potential protective effect of the compounds.

normal rats = test: Cardiac function and hemodynamics in normal rats; type: in vivo, rat; conditions: 30 mg/kg orally; normal anesthetized rats
Description: Method: Male SD rats, weighing 300-350 g were fasted for 12 hrs and anesthetized by i.p. treatment with 20% Urethane (0.5 ml/100 g, 1 g/kg). Polyethylene tubes (PE-50) were inserted into the left femoral artery, left femoral vein, right femoral vein and the left ventricle. The left femoral artery was cannulated for blood collection, and the left femoral vein was cannulated for liquid compensation, the right femoral artery was cannulated for blood pressure detection, the left ventricle was cannulated for ventricular pressure detection, the left femoral artery and ventricle were cannulated and the catheter was linked with pressure transducer by triplet. Signals were acquired by oscillograph and multi-channel biodynamic recorder linked with the pressure transducer. Rats in drug-treating group were orally administered with IMM-004 at 30 mg/kg, while rats in vehicle control group was orally treated with equal volume of vehicle (PEG). Left ventricular systolic pressure (LVSP), left ventricular end-diastolic pressure (LVEDP), and maximum rate of left ventricular pressure (±dp/dtmax), artery systolic pressure (SP), artery diastolic pressure (DP), mean artery pressure (MAP) and heart rate (HR) were recorded 40 min after the administration. Signals were continuously recorded in every 10 min.

[2] = Acute toxicity study in mice; type: in vivo; conditions: male, KM, mouse, in vivo; oral, mice; read-out: LD50 (50% lethal dose)
Description: Acute toxicity studies were performed with IMM-004 and IMM-127 (synthesized by ourselves). The compound was provided as powder, which was milled and suspended in 0.5% carboxymethylcellulose sodium (CMC—Na) before use.
Male KM mice weighting 19±2 g were housed for an adaptation before use. Mice were randomly divided into groups, and each group consists of 10 animals. Mice were all fasted for 14 hrs before the administration of the tested compounds. Activity of mice in high dose group was reduced 30 min after the administration. 24 h after the administration, mice in each group were restored to normal. Mice were observed daily for a period of 7 days after the administration.

[3] = test system: arrhythmia caused by ischemia/reperfusion insults in anaesthetic rats; test: Ischemia/reperfusion arrhythmia in anaesthetic rats, intravenous injection; type: in vivo, rat; conditions: for incidence and duration of VT, VF, VE / ventricular arrhythmic / latency of ventricular arrhythmic: 3 mg/Kg intravenous (femoral vein), rats; for Occurrence time / VE Duration time / VE Incidence (%) / VF Duration time / VF Incidence (%) / VT Duration time / VT Incidence (%): intravenously injected per table title
Text: (1) Protective Effects of the Tested Compounds on Myocardial Insults in Rats after Intravenously Injection
as §1

[4] = test system: isolated rat hearts subjected to ischemia-reperfusion (I/R); test: Isolated heart subjected to ischemia/reperfusion injury (arrhythmia); conditions: for AAT: arrhythmic occurrence time, Time / VF (ventricular fibrillation) Incidence rate (%) / VPS (ventricular premature beats) Incidence rate (%) / VT (ventricular tachycardia) Incidence rate (%): 10^−6 M, isolated heart ischemia/reperfusion
Procedure, shortened: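 Rat hearts perfused in vitro and subjected to ischemia-reperfusion after drug exposure. Recorded endpoints: duration of ventricular arrhythmia and incidence of ventricular extrasystole and VT/VF.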

SMILES: O=c1c2cc(Cl)ccc2[se]n1-c1ccccn1 [IMM-004, 5-chloro-2-(2-pyridyl)-1,2-benz-isoselenazol-3(2H)-one]
- protective effect: incidence/duration of VT, VF, duration of ventricular arrhythmic ([1]; 10 mg/Kg orally): No protective effect
- Occurrence time ([1]; 10 mg/Kg p.o.): 9.3 ± 10.0 s
- VE Duration time ([1]; 10 mg/Kg p.o.): 4.7 ± 12.9 s
- VE Incidence (%) ([1]; 10 mg/Kg p.o.): 100%
- VF Duration time ([1]; 10 mg/Kg p.o.): 8.8 ± 7.4 s
- VF Incidence (%) ([1]; 10 mg/Kg p.o.): 22.2%
- VT Duration time ([1]; 10 mg/Kg p.o.): 30.2 ± 17.6 s
- VT Incidence (%) ([1]; 10 mg/Kg p.o.): 88.9%
- protective effect: incidence/duration of VT, VF, duration of ventricular arrhythmic ([1]; 30 mg/Kg orally): all reduced
- Occurrence time ([1]; 30 mg/Kg p.o.): 19.6 ± 24.1 s
- VE Duration time ([1]; 30 mg/Kg p.o.): 0.4 ± 1.3 s
- VE Incidence (%) ([1]; 30 mg/Kg p.o.): 66.7%
- VF Duration time ([1]; 30 mg/Kg p.o.): 3.3 ± 5.7 s
- VF Incidence (%) ([1]; 30 mg/Kg p.o.): 11.1* %
- VT Duration time ([1]; 30 mg/Kg p.o.): 17.0 ± 12.6 s
- VT Incidence (%) ([1]; 30 mg/Kg p.o.): 44.4** %
- Occurrence time ([1]; 100 mg/Kg p.o.): 16.4 ± 25.1 s
- VE Duration time ([1]; 100 mg/Kg p.o.): 5.5 ± 10.2 s
- VE Incidence (%) ([1]; 100 mg/Kg p.o.): 66.7%
- VF Duration time ([1]; 100 mg/Kg p.o.): 3.9 ± 6.8 s
- VF Incidence (%) ([1]; 100 mg/Kg p.o.): 33.3%
- VT Duration time ([1]; 100 mg/Kg p.o.): 22.7 ± 19.4 s
- VT Incidence (%) ([1]; 100 mg/Kg p.o.): 55.5* %
- protective effect: incidence/duration of VT, duration of ventricular arrhythmic [1]: all reduced
- LVSP, LVEDP, ±dp/dtmax, SP, DP, MAP and heart rate (HR) (normal rats): not significantly influenced
- LD50 at 7 days [2]: > 5000 mg/kg
- incidence and duration of VT, VF, VE / ventricular arrhythmic [3]: all reduced
- latency of ventricular arrhythmic [3]: significantly prolonged
- Occurrence time ([3]; 10 mg/Kg): 9.3 ± 10.0 s
- VE Duration time ([3]; 10 mg/Kg): 4.7 ± 12.9 s
- VE Incidence (%) ([3]; 10 mg/Kg): 100%
- VF Duration time ([3]; 10 mg/Kg): 8.8 ± 7.4 s
- VF Incidence (%) ([3]; 10 mg/Kg): 22.2%
- VT Duration time ([3]; 10 mg/Kg): 30.2 ± 17.6 s
- VT Incidence (%) ([3]; 10 mg/Kg): 88.9%
- Occurrence time ([3]; 30 mg/Kg): 19.6 ± 24.1 s
- VE Duration time ([3]; 30 mg/Kg): 0.4 ± 1.3 s
- VE Incidence (%) ([3]; 30 mg/Kg): 66.7%
- VF Duration time ([3]; 30 mg/Kg): 3.3 ± 5.7 s
- VF Incidence (%) ([3]; 30 mg/Kg): 11.1* %
- VT Duration time ([3]; 30 mg/Kg): 17.0 ± 12.6 s
- VT Incidence (%) ([3]; 30 mg/Kg): 44.4** %
- Occurrence time ([3]; 100 mg/Kg): 16.4 ± 25.1 s
- VE Duration time ([3]; 100 mg/Kg): 5.5 ± 10.2 s
- VE Incidence (%) ([3]; 100 mg/Kg): 66.7%
- VF Duration time ([3]; 100 mg/Kg): 3.9 ± 6.8 s
- VF Incidence (%) ([3]; 100 mg/Kg): 33.3%
- VT Duration time ([3]; 100 mg/Kg): 22.7 ± 19.4 s
- VT Incidence (%) ([3]; 100 mg/Kg): 55.5* %
- protective effects on myocardial insults ([4]; 10^−6M, isolated heart): significant protective effects
- AAT: arrhythmic occurrence time, Time [4]: 0.70 ± 0.33 min
- VF (ventricular fibrillation) Incidence rate (%) [4]: 0** %
- VPS (ventricular premature beats) Incidence rate (%) [4]: 37.5%
- VT (ventricular tachycardia) Incidence rate (%) [4]: 37.5%

SMILES: O=c1c2cc(F)ccc2[se]n1-c1ccccn1 [IMM-127, 5-fluoro-2-(2-pyridyl)-1,2-benz-isoselenazol-3(2H)-one]
- protective effect: incidence/duration of VT, VF, duration of ventricular arrhythmic ([1]; 10 mg/Kg orally): significantly reduced
- Occurrence time ([1]; 10 mg/Kg p.o.): 15.5 ± 21.5 s
- VE Duration time ([1]; 10 mg/Kg p.o.): 2.5 ± 6.4 s
- VE Incidence (%) ([1]; 10 mg/Kg p.o.): 100%
- VF Duration time ([1]; 10 mg/Kg p.o.): 6.6 ± 7.2 s
- VF Incidence (%) ([1]; 10 mg/Kg p.o.): 22.2%
- VT Duration time ([1]; 10 mg/Kg p.o.): 32.1 ± 26.1 s
- VT Incidence (%) ([1]; 10 mg/Kg p.o.): 66.7%
- protective effect: incidence/duration of VT, VF, duration of ventricular arrhythmic ([1]; 30 mg/Kg orally): all reduced
- Occurrence time ([1]; 30 mg/Kg p.o.): 9.6 ± 9.2 s
- VE Duration time ([1]; 30 mg/Kg p.o.): 0.2 ± 0.5 s
- VE Incidence (%) ([1]; 30 mg/Kg p.o.): 100%
- VF Duration time ([1]; 30 mg/Kg p.o.): 3.2 ± 5.5 s
- VF Incidence (%) ([1]; 30 mg/Kg p.o.): 11.1* %
- VT Duration time ([1]; 30 mg/Kg p.o.): 18.0 ± 11.4 s
- VT Incidence (%) ([1]; 30 mg/Kg p.o.): 66.7%
- Occurrence time ([1]; 100 mg/Kg p.o.): 9.0 ± 19.7 s
- VE Duration time ([1]; 100 mg/Kg p.o.): 2.2 ± 63 s
- VE Incidence (%) ([1]; 100 mg/Kg p.o.): 88.9%
- VF Duration time ([1]; 100 mg/Kg p.o.): 5.1 ± 7.8 s
- VF Incidence (%) ([1]; 100 mg/Kg p.o.): 22.2%
- VT Duration time ([1]; 100 mg/Kg p.o.): 31.1 ± 21.3 s
- VT Incidence (%) ([1]; 100 mg/Kg p.o.): 44.4** %
- protective effect: incidence/duration of VT, duration of ventricular arrhythmic [1]: reduced
- incidence and duration of VT, VF, VE / ventricular arrhythmic [3]: all reduced
- latency of ventricular arrhythmic [3]: significantly prolonged
- Occurrence time ([3]; 10 mg/Kg): 15.5 ± 21.5 s
- VE Duration time ([3]; 10 mg/Kg): 2.5 ± 6.4 s
- VE Incidence (%) ([3]; 10 mg/Kg): 100%
- VF Duration time ([3]; 10 mg/Kg): 6.6 ± 7.2 s
- VF Incidence (%) ([3]; 10 mg/Kg): 22.2%
- VT Duration time ([3]; 10 mg/Kg): 32.1 ± 26.1 s
- VT Incidence (%) ([3]; 10 mg/Kg): 66.7%
- Occurrence time ([3]; 30 mg/Kg): 9.6 ± 9.2 s
- VE Duration time ([3]; 30 mg/Kg): 0.2 ± 0.5 s
- VE Incidence (%) ([3]; 30 mg/Kg): 100%
- VF Duration time ([3]; 30 mg/Kg): 3.2 ± 5.5 s
- VF Incidence (%) ([3]; 30 mg/Kg): 11.1* %
- VT Duration time ([3]; 30 mg/Kg): 18.0 ± 11.4 s
- VT Incidence (%) ([3]; 30 mg/Kg): 66.7%
- Occurrence time ([3]; 100 mg/Kg): 9.0 ± 19.7 s
- VE Duration time ([3]; 100 mg/Kg): 2.2 ± 63 s
- VE Incidence (%) ([3]; 100 mg/Kg): 88.9%
- VF Duration time ([3]; 100 mg/Kg): 5.1 ± 7.8 s
- VF Incidence (%) ([3]; 100 mg/Kg): 22.2%
- VT Duration time ([3]; 100 mg/Kg): 31.1 ± 21.3 s
- VT Incidence (%) ([3]; 100 mg/Kg): 44.4** %
- AAT: arrhythmic occurrence time, Time [4]: 19.72 ± 4.42 min
- VF (ventricular fibrillation) Incidence rate (%) [4]: 38%
- VPS (ventricular premature beats) Incidence rate (%) [4]: 50%
- VT (ventricular tachycardia) Incidence rate (%) [4]: 62.5%
